# How the values were obtained:
# [1] = tested on: intractable migraine headache; test: Injectable (intravenous) levetiracetam for acute migraines, open-label study; assay type: in vivo, patients
# Method: Sterile, preservative-free liquid preparations of levetiracetam, at concentrations of 200 mg/ml or 400 mg/ml, was prepared in a laminar flow hood by a compounding pharmacist. Particulate matter was filtered out through a series of filtrations and the solution was stabilized at a pH of 6.0. The resulting solution was clear. 29 patients were treated (19 female and 10 male), and a total of 42 intractable migraines were treated in this study. Their age range was 26 to 59 (mean age, 44 years). All patients had failed treatment with their usual migraine-specific or abortive therapies. Most patients (n=24) were in the second or third day of intractable migraine headache. 5 patients were treated on more than one occasion (1 patient was treated 6 separate times; 1 patient, 5 times, 1 patient, 3 times; and 2 patients, twice each). 6 patients (21%) were already on levetiracetam orally at the time of intravenous treatment. 23 were naive to levetiracetam at the time of treatment. Patients were treated in the setting of a headache clinic. An antecubital line was started and pulse oximetry monitoring was employed throughout treatment. No other medications were given orally or intravenously to treat the migraine. In a typical treatment for a first-time patient, a test dose of 400 mg levetiracetam was given, and then 400-600 mg was given every 5 minutes, until maximum effect was reported by the patient. The average dosage given intravenously was 5940 mg (range 400 to 16,000 mg). The average time to best response after treatment was 66 min (range=20-120 min). Prior to treatment, migraine severity (reported by each patient on a 0 to 10 numeric rating scale (NRS), with 10 representing the absolute worst possible pain) was 8.4. After treatment, it was 1.6, which represents a mean reduction of 81% in migraine severity. 16 patients (55%), representing 21 of 42 episodes, had complete resolution of their ongoing migraine, to a reported severity of zero. Only one patient had no reported response to the treatment.
# [2] = tested on: epileptic seizures; details: taken chronically; patients who suffer from frequent seizures; cited from earlier work
# [3] = tested on: recurrent migraine headaches; test: Oral levetiracetam as a prophylactic agent, small-scale open-label trial; assay type: in vivo; details: chronic daily oral treatment, 250 to 750 mg tablets; substantial fraction of patients
# Source text: A limited number of patients who were being treated by the Applicant for recurrent migraine headaches were placed on a regimen of daily oral levetiracetam, in a small-scale open-label trial. […] In general, the recurrent migraine patients who were chosen for this type of experimental trial were those who had not responded adequately to various other known candidate treatments. Patients kept daily records of the frequency of their migraine headaches, and also kept logs that recorded the severity of each headache, on a subjective scale of 1 to 10, with 1 being mild, and 10 being extremely intense pain.
# [4] = over a wide dose range; cited from earlier work
smiles,measurement,setting,value
CC[C@@H](C(N)=O)N1CCCC1=O [levetiracetam],episodes with complete resolution of ongoing migraine,[1]; intravenous,21 of 42 episodes
same,side effects,[1]; intravenous,minimal
same,"time to best response after treatment, range","[1]; intravenous, 29 patients, 42 migraines",20 to 120 min
same,mean reduction in migraine severity,"[1]; intravenous, NRS 8.4 prior to treatment vs 1.6 after",81%
same,average time to best response after treatment,"[1]; intravenous, average dosage 5940 mg, 29 patients, 42 migraines",66 min
same,time until side effects dissipated spontaneously,"[1]; intravenous, nausea and drowsiness",30 to 90 min
same,patients reporting drowsiness,"[1]; intravenous, of 29 patients",2 patients
same,patients reporting transient nausea,"[1]; intravenous, of 29 patients",3 patients
same,"patients with complete resolution of ongoing migraine, to a reported severity of zero","[1]; intravenous, of 29 patients",16 patients
same,patients with no reported response to the treatment,"[1]; intravenous, of 29 patients",one
same,share of patients with complete resolution of ongoing migraine,"[1]; intravenous, of 29 patients",55%
same,"migraine severity after treatment (0 to 10 numeric rating scale, NRS)","[1]; intravenous, severity prior to treatment was 8.4",1.6
same,outcome in patient treated for a combination of cluster headaches and migraines,[1]; one patient,resolution of both
same,reduction of the frequency of epileptic seizures,[2],15 to 30%
same,reduced frequency and/or reduced severity of migraine headaches,[3],substantial benefits
same,tolerability / toxicity,[4],well tolerated over a wide dose range with no apparent toxicity
